The values below come from patent US7829573B2, “Therapeutic combinations of antihypertensive and antiangiogenics agents” (AstraZeneca AB, priority 2000, dated 2010).

A short description of series [1]: Measurement of blood pressure in conscious rats by radio telemetry. Type of series: in vivo, rat.
Experimental: Blood pressure was measured using the Data Sciences radio-telemetry equipment (Data Sciences International, Saint Paul, Minn., USA). This provides a means of measuring the blood pressure (BP), heart rate and activity of a conscious unrestrained rat remotely. The measurements obtained using this system are free from the stresses induced by surgery and restraint. The system comprises a pressure transducer (TA11PA-C40) (the ‘implant’) implanted in the abdomen of a rat which transmits a radio signal indicating the pressure in the aorta of the animal. The signal is detected by a receiver RA1010) placed under the plastic cage which houses the animal.
Rats were anaesthetised with “Fluothane™” inhalation anaesthetic. The abdomen of the rat was shaved and the skin coated with a topical disinfectant. […]
Blood pressure data was recorded from each animal every 10 minutes throughout the study. […] This average day time blood pressure measurement for each rat was calculated over a 4 day period immediately prior to the commencement of compound dosing.
For the next 4 days (i.e. days 11 to 14 of compound dosing) the rats were dosed with the ACE inhibitor captopril at 30 mg/kg p.o. once daily in addition to the quinazoline compound. The average blood pressure of each rat was calculated daily and the difference between the daily calculated pressure and the starting pressure was expressed.
For series [2] the following is noted: conscious rats, VEGF 250 μg/kg; cited from earlier work.
The test system of a further series is coronary arteries. As to conditions: dog, in vitro; cited from earlier work.
The conditions of series [3]: anaesthetised rats, 15 μg/kg bFGF; cited from earlier work.

Like-named read-outs stand apart in the source and are kept apart here.

For `COc1cc2c(Nc3ccc(Br)cc3F)ncnc2cc1OCC1CCN(C)CC1` [4-(4-bromo-2-fluoroanilino)-6-methoxy-7-(1-methylpiperidin-4-ylmethoxy)quinazoline], in series [1] (conscious male wistar rats, 12.5 mg/kg p.o. once daily for 10 days, 3 dosed rats and a control rat (FIG. 1)), the “effect on the diastolic blood pressure in rats” value is “increase in blood pressure”.
Regarding `C[C@H](CS)C(=O)N1CCC[C@H]1C(=O)O` [captopril, reference compound], the “effect of addition of ACE inhibitor on the increase in blood pressure caused by the VEGF receptor tyrosine kinase inhibitor” value in series [1] (captopril 30 mg/kg p.o. once daily on days 11 to 14 in addition to the quinazoline compound 12.5 mg/kg p.o.) was “reversed”.
Take VEGF: in series [2], the “time to return to normal blood pressure” value is at most 20 min. The “effect on coronary arteries” value in the series with coronary arteries is reported as “dilate coronary arteries”.
In the case of “bFGF: basic fibroblast growth factor, polypeptide with endothelial cell growth promoting activity”, the “time to return to normal blood pressure” value in series [3] was at most 30 min.
